These results are taken from patent US20020183290A1, “Adrenergic receptor antagonists selective for both alpha1A-and alpha1D-subtypes and uses therefor” (Recordati S.A., Chemical and Pharmaceutical Company, priority 2001, published 2002).

Assay [1] has as its target T1, cloned α1a-adrenoceptor subtype (Homo sapiens, UniProt P35348).
T1 construct: expressed in transfected cells
T1 sequence (P35348 1-466): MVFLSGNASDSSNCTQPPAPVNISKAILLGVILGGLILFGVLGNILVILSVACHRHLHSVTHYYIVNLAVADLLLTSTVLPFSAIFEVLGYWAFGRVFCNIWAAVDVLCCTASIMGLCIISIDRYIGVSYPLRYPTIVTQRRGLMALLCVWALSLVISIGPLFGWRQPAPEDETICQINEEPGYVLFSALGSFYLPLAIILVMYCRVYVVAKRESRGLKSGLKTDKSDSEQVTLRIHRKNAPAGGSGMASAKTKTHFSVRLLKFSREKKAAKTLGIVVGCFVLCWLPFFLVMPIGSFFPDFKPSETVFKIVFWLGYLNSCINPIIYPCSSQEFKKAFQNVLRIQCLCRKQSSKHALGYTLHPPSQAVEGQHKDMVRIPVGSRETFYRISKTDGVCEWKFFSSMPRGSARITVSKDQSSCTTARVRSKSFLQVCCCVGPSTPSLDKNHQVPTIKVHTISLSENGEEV
The assay is described as follows: Radioligand binding assay ([3H]prazosin), cloned α1a-adrenoceptor subtype. The settings on record: read-out: Binding Affinity (Ki nM) α1a. The procedure:
(§1) Springer-Verlag, pp. 10-12). […] The results from these assays are used to calculate a measure of receptor selectivity, expressed as the ratio of affinities (Ki) for a given pair of receptors.
(§2) Determination of affinity for cloned subtypes of α1-adrenoceptor subtypes was performed in membranes from cells transfected by electroporation with DNA expressing the genes encoding each α1-adrenoceptor subtype.
(§3) Non-specific binding was determined in the presence of 10 μM phentolamine. Incubation was stopped by addition of ice-cold Tris buffer and rapid filtration through 0.2% polyethyleneimine-pretreated Schleicher & Schuell GF52 filters. […] Data were expressed as mean Ki.

In assay [2] the target is T2, cloned α1b-adrenoceptor subtype (Homo sapiens, UniProt P35368).
T2 construct: expressed in transfected cells
T2 sequence (P35368 1-520): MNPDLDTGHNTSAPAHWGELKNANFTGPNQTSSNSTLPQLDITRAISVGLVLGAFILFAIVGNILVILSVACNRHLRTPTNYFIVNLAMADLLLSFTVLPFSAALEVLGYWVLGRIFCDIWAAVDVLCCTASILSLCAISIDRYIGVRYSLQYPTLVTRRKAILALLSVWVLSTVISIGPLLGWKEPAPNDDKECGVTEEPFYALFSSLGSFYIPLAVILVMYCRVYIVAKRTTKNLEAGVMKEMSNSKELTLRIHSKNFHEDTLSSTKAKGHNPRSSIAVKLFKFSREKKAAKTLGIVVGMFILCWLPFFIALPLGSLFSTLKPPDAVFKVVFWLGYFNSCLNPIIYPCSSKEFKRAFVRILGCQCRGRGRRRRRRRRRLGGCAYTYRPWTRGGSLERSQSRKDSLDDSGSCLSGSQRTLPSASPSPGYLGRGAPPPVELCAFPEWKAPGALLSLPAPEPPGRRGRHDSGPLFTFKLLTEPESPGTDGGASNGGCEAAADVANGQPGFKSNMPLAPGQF
The assay is described as follows: Radioligand binding assay ([3H]prazosin), cloned α1b-adrenoceptor subtype. The settings on record: read-out: Binding Affinity (Ki nM) α1b. As for the experimental part:
as §1, §2, §3

Assay [3] addresses T3, cloned α1d-adrenoceptor subtype (Homo sapiens, UniProt P25100).
T3 construct: expressed in transfected cells
T3 sequence (P25100 1-572): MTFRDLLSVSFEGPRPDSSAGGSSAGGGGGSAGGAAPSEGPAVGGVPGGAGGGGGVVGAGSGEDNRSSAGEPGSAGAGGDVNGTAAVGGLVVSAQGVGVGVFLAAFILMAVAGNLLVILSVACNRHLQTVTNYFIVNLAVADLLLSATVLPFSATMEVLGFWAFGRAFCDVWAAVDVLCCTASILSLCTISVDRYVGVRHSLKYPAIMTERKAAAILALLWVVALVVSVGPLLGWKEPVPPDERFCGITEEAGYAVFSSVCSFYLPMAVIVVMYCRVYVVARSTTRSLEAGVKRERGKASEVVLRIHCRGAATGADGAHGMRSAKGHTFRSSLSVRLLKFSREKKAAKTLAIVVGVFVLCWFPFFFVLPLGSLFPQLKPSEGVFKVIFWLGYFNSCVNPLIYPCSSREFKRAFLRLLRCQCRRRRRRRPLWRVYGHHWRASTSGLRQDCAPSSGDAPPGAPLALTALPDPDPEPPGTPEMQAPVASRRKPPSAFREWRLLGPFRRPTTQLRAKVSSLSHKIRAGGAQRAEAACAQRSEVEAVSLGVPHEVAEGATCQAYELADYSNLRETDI
The assay can be described thus: Radioligand binding assay ([3H]prazosin), cloned α1d-adrenoceptor subtype. The following applies: read-out: Binding Affinity (Ki nM) α1d. As for the experimental part:
as §1, §2, §3

Assay [4] has as its system conscious rats with partial urethral obstruction. The assay can be described thus: Cystometry in conscious rats obstructed by partial urethra ligature (unstable-bladder contractions). The class given is in vivo, rat. The settings on record: for inhibition in vivo at 1 mg/kg / inhibition in vivo at 3 mg/kg: 2 min; for Amplitude of non-effective micturition contractions, After Treat. / Frequency (number) of non-effective micturition contractions, After Treat.: after treatment; for Activity as inhibitors of unstable-bladder contractions (in words): obstructed conscious rats, summary of Tables 1 and 2. The source says:
A useful animal model system for measuring such pharmacological activity is, without limitation, cystometry in conscious rats with partial bladder-neck obstruction. […] This model is reported in the literature as related to LUTS occurring in patients having obstructive urethral syndromes (Michel, 2000, Drugs of Today. 386 (Supp. B2): 3-6)
In order to obtain a partial obstruction of the urethra, the method previously reported by Malgren (Nalgren et al., 1987, J. Urol. 137:1291-1294; 1988, Neurourol. Urodyn. 6:371), was followed with minor modifications (Guarneri et al., 1991, Pharmacol. Res. 24:263).
Female rats of the Sprague-Dawley strain [Crl:CD(SD)BR, from Charles River Italia, Calco, Como, Italy] weighing 225-275 g were used. The animals were maintained in constant temperature and humidity conditions, on a forced 12-hour light-dark cycle and with food and water ad libitum for at least one week before the experiment.
After being anaesthetized with 3 ml/kg i.p. equitensin (pentobarbital 1.215 g, chloral hydrate 5.312 g, magnesium sulphate 2.657 g, ethanol 12.5 ml, propylene glycol 49.5 ml, distilled water to 125 ml of final volume), the rats were placed in a supine position and the bladder and urethra were exposed via an incision in the shaven abdomens and gently pulling away the muscle portion. The urethra was cannulated with a polyethylene tube with an outside diameter of 1.22 mm, and the urinary bladder was then emptied and, via the cannula introduced through the urethra, filled with physiological saline. A silk (Ethicon 3/0) ligature was placed around the urethra with the cannula inside and the intraurethral cannula was then removed. The abdominal incision was sutured and, immediately after the operative procedure, antibiotic medication (penicillin G 200 000 I.U./kg i.p. and streptomycin 260 mg/kg i.p.) was performed.
Three weeks after the procedure for partially obstructing the urethra, the animals were prepared for cystometry by surgical insertion into the bladder of a catheter, through which the bladder was gradually filled.
The rats, anaesthetised with equitensin 3 ml/kg i.p., were placed in a supine position and, via an incision of about 10 mm in the abdominal wall, the urinary bladder was exposed and gently freed from surrounding tissues.
The urinary bladder was emptied manually and cannulated, via a small incision at the bladder top, with a polyethylene cannula (type PE-50, 0.58 mm I.D. ×0.96 mm O.D.), which was permanently secured to the bladder with silk thread.
The cannula was exposed through a subcutaneous tunnel in the retroscapular area, where it was fastened with a plastic adapter, in order to avoid the risk of removal by the animal. After washing the urinary bladder with physiological saline, the catheter was sealed using a small flame and the abdominal incision was sutured.
To allow evaluation of the effect of a test compound after intravenous administration, the jugular vein was cannulated with a polyethylene cannula (type PE-50, 0.58 mm I.D.×0.96 mm O.D.) filled with heparinised physiological saline. As for the bladder catheter, this cannula, too, was exteriorised, secured and sealed in the retroscapular area.
Two days after the operation, the rats, fasted overnight, were placed in Bollman's cages or in Bollman's cages modified so as to have an opening in the bottom to allow collection of urinated fluid.
After an adaptation period of 20 minutes, the free end of the bladder cannula was connected to a pressure transducer and a special apparatus which allowed infusion into the urinary bladder of physiological saline at 37° C. at a constant rate of 10 ml/hour. Intravesical pressure changes caused by bladder filling were recorded by the pressure transducer which was connected to a recording polygraph.
From the cystometrograms, the frequency and mean amplitude of spontaneous bladder contractions not inducing micturition, termed “unstable-bladder contractions” (UBC), within 2 minutes prior to micturition were evaluated. […]

The next assay concerns LUTS. The settings on record: LUTS secondary to BPH; relaxing effects on prostate smooth muscle were present; cited from earlier work.
Where [5] appears, read: cloned receptor, cell membranes, 0.2 nM [3H]prazosin, mean Ki.
Setting [6] is: obstructed rat, 1 mg/kg, 2 minutes before micturition, read-out: % inhibition of amplitude of non-effective micturition contractions.
Where [7] appears, read: obstructed rat, 1 mg/kg, 2 minutes before micturition, read-out: % inhibition of frequency of non-effective micturition contractions.
Where [8] appears, read: Rattus norvegicus, read-out: % inhibition of amplitude of non-effective micturition contractions.
Setting [9] is: Rattus norvegicus, read-out: % inhibition of frequency of non-effective micturition contractions.

Read-outs that look alike come from different tables or passages of the source.

On to `COc1ccc(Cl)cc1N1CCN(CCCNC(=O)c2c(-c3ccccc3)noc2C)CC1` [Compound B, N-{3-[4-(5-Chloro-2-methoxyphenyl)-1-piperazinyl]propyl}-5-methyl-3-phenylisoxazole-4-carboxamide], for which the inhibition constant (Ki) – broadly, the equilibrium dissociation constant of an inhibitor or competing ligand from its target – in assay [1] is 0.8 nM; in assay [2] (setting [5]) it was 23.6 nM; in assay [3], 2.7 nM. Further, the inhibition in vivo at 1 mg/kg in assay [4] (setting [6]) was 44%; in assay [4] (setting [7]), 49%. Further, the “Amplitude of non-effective micturition contractions, After Treat.” value in assay [4] (1.0 mg/kg) is on record as 4.2 ± 1.0 mmHg. In addition, the “Frequency (number) of non-effective micturition contractions, After Treat.” value in assay [4] (1.0 mg/kg) came to 3.0 ± 0.7. Also, the “Activity as inhibitors of unstable-bladder contractions (in words)” value (“Activity as inhibitors” below) in assay [4] is on record as “more potent”.
`Cc1onc(-c2ccccc2)c1C(=O)NCCCN1CCN(c2cc(F)ccc2OCC(F)(F)F)CC1` [Compound C, N-{3-[4-[5-fluoro-2-(2,2,2-trifluoroethoxy)phenyl]-1-piperazinyl]propyl}-3-phenyl-5-methylisoxazole-4-carboxamide]: the Ki in assay [1] is 0.05 nM; in assay [3], 0.33 nM.
Turning to `Cc1onc(-c2ccccc2Cl)c1C(=O)NCCCN1CCN(c2ccccc2OCC(F)(F)F)CC1` [Compound D, 3-(2-chlorophenyl)-5-methyl-N-{3-[4-[2-(2,2,2-trifluoroethoxy)phenyl]-1-piperazinyl]propy}isoxazole-4-carboxamide], the Ki in assay [1] turned out to be 0.07 nM; in assay [2], 14.1 nM; in assay [3], 0.49 nM. The inhibition in vivo at 1 mg/kg was found to be 73% in assay [4] (setting [6]) and 68% in assay [4] (setting [7]). In addition, the “Amplitude of non-effective micturition contractions, After Treat.” value in assay [4] (1.0 mg/kg) came out at 2.1 ± 0.7 mmHg. Further, the “Frequency (number) of non-effective micturition contractions, After Treat.” value in assay [4] (1.0 mg/kg) is on record as 1.7 ± 0.8. The “Activity as inhibitors” value in assay [4] is “more potent”.
`COc1ccccc1N1CCN(CCCNC(=O)c2cccc3c(=O)c(C)c(-c4ccccc4)oc23)CC1` [Rec 15/2739]: in assay [4] (setting [8]), the inhibition in vivo at 1 mg/kg was determined as 29%. In addition, the inhibition in vivo at 1 mg/kg in assay [4] (setting [9]) worked out at 28%. For the same compound, in assay [4] (1.0 mg/kg), the “Amplitude of non-effective micturition contractions, After Treat.” value is listed as 7.3 ± 1.3 mmHg and the “Frequency (number) of non-effective micturition contractions, After Treat.” value worked out at 4.8 ± 0.2. For the same compound, in assay [4], the “Activity as inhibitors” value is “poorly active”. For the same compound, the “Relief of LUTS in clinical trial” value in the assay on LUTS is on record as “did not result in relief of LUTS”.
`Cc1onc(-c2ccccc2)c1C(=O)NCCCN1CCN(c2ccc(F)cc2OCC(F)(F)F)CC1` [Rec 27/0110]: the values for the Ki in assay [1], in assay [2] (setting [5]) and in assay [3] were 0.35 nM, 69 nM and 18.9 nM, respectively. Further, the inhibition in vivo at 1 mg/kg in assay [4] (setting [8]) stood at 21%; in assay [4] (setting [9]), 27%. Moreover, the inhibition in vivo at 3 mg/kg in assay [4] (setting [8]) was determined as 53%; in assay [4] (setting [9]), 49%. Moreover, the results for the “Amplitude of non-effective micturition contractions, After Treat.” value in assay [4] (1.0 mg/kg) and in assay [4] (3.0 mg/kg) were 6.0 ± 1.4 mmHg and 2.3 ± 0.8 mmHg, respectively. The “Frequency (number) of non-effective micturition contractions, After Treat.” value in assay [4] (1.0 mg/kg) turned out to be 4.4 ± 0.8; in assay [4] (3.0 mg/kg) it was 2.2 ± 0.7. For the same compound, the “Activity as inhibitors” value in assay [4] is listed as “poorly active”.
